According to patent US8349811B2, “Stable 6-methoxy-2′,3′-dideoxyguanosine, method for preparing the same and pharmaceutical composition containing the same” (Nanjing Changao Pharmaceutical Science & Technology Co., …, priority 2008, dated 2013):
Entries after “also recorded” stand apart in the source; their conditions may differ.

Key:
[1] = Water content of the product of the Examples by the Karl-Fischer method; assay type: physicochemical; settings: after water absorption (Examples 1-3) or vacuum drying (Examples 4-5)
Description: 1 kg of powder of 6-methoxy-2′,3′-dideoxyguanosine with 2.7% (wt %) of water content is laid in a plate flat and placed in the environment with the temperature of 5 degrees centigrade and the humidity of 60% (wt %), is mixed every 1-4 hours, and the required product is obtained after 48 hours.
0.5 kg of powder of 6-methoxy-2′,3′-dideoxyguanosine with 1.5% (wt %) of water content is laid in a plate flat and placed in the environment with the temperature of 15 degrees centigrade and the humidity of 40% (wt %), is mixed every 3-5 hours, and the required product is obtained after 36 hours.
0.5 kg of powder of 6-methoxy-2′,3′-dideoxyguanosine with 3.2% (wt %) of water content is laid in a plate flat and placed in the environment with the temperature of 0 degrees centigrade and the humidity of 90% (wt %), is mixed every 2 hours, and the required product is obtained after 36 hours.
1.5 kg of powder of 6-methoxy-2′,3′-dideoxyguanosine with 60.5% (wt %) of water content is laid in a plate flat and placed in a vacuum drying box, anhydrous calcium chloride is taken as a drying agent, vacuumizing is carried out by a water pump at the temperature of 25 degrees centigrade, decompression drying is further carried out, and the required product is obtained after 48 hours.
1.0 kg of powder of 6-methoxy-2′,3′-dideoxyguanosine with 40.5% (wt %) of water content is laid in a plate flat and placed in a vacuum drying box, phosphorus pentoxide is taken as a drying agent, vacuum decompression drying is carried out at the temperature of 15 degrees centigrade, and the required product is obtained after 38 hours.

[2] = Water-absorbing test in different humidity environments at 5 degrees centigrade; assay type: physicochemical
Description: (§1) Table 1 is a comparison table, wherein, the 6-methoxy-2′,3′-dideoxyguanosine with less than 6% (wt %) of water content is placed in different humidity environments at 5 degrees centigrade for carrying out water-absorbing tests, the products at the corresponding time points are placed in the environment with the temperature of 30 degrees centigrade and the humidity of 90% (wt %) for carrying out the acceleration test inspection, the sampling inspection are carried out at the 15th day, the 30th day and the 60th day respectively, and the inspection indexes comprise the character and the water content.

[3] = Acceleration test inspection at 30 degrees centigrade and humidity 90% (character and water content); assay type: physicochemical; settings: for Acceleration Test Inspection, Water Content / Acceleration Test Inspection, Character: 30 degrees centigrade, humidity 90%
Description: as §1

[4] = tested on: HIV (Human Immunodeficiency Virus); assay: Anti-HIV experimental study of the inventors
[5] = Metabolism in plasma to ddG; assay type: in vitro ADME; settings: metabolite 2′,3′-dideoxyguanosine (ddG)
[6] = Moisture absorption and handling under the general conditions; assay type: physicochemical; settings: for moisture absorption: general conditions
[7] = tested on: hepatitis B virus (HBV); settings: reported in Chinese patent CN1493301A; cited from earlier work
[8] = tested on: DHBV DNA replication; assay: Suppression of DHBV DNA replication; settings: competition with ddCTP
[9] = product of placement time 14 hours, 15th Day
[10] = product of placement time 14 hours, 30th Day
[11] = product of placement time 14 hours, 60th Day
[12] = product of placement time 2 days, 15th Day
[13] = product of placement time 2 days, 30th Day
[14] = product of placement time 2 days, 60th Day
[15] = product of placement time 3 days, 15th Day
[16] = product of placement time 3 days, 30th Day
[17] = product of placement time 3 days, 60th Day
[18] = product of placement time 4 days, 15th Day
[19] = product of placement time 4 days, 30th Day
[20] = product of placement time 4 days, 60th Day
[21] = product of placement time 10 days, 15th Day
[22] = product of placement time 10 days, 30th Day
[23] = product of placement time 10 days, 60th Day

## COc1nc(N)nc2c1ncn2[C@H]1CC[C@@H](CO)O1 [Example 2, 6-methoxy-2′,3′-dideoxyguanosine]
[1]
  water content of the required product: 12.5 % (wt %)

## COc1nc(N)nc2c1ncn2[C@H]1CC[C@@H](CO)O1 [Example 1, 6-methoxy-2′,3′-dideoxyguanosine]
[1]
  water content of the required product: 23.5 % (wt %)

## COc1nc(N)nc2c1ncn2[C@H]1CC[C@@H](CO)O1 [Example 5, 6-methoxy-2′,3′-dideoxyguanosine]
[1]
  water content of the required product: 18.5 % (wt %)

## COc1nc(N)nc2c1ncn2[C@H]1CC[C@@H](CO)O1 [Example 4, 6-methoxy-2′,3′-dideoxyguanosine]
[1]
  water content of the required product: 22.5 % (wt %)

## COc1nc(N)nc2c1ncn2[C@H]1CC[C@@H](CO)O1 [6-methoxy-2′,3′-dideoxyguanosine]
[2]; Humidity 40%, placement time 0 hour
  Water Content When Placed in Different Humidity Environments: 2.7 wt %
[2]; Humidity 40%, placement time 1 hour
  Water Content When Placed in Different Humidity Environments: 4.3 wt %
[2]; Humidity 40%, placement time 2 hours
  Water Content When Placed in Different Humidity Environments: 5.4 wt %
[2]; Humidity 40%, placement time 14 hours
  Water Content When Placed in Different Humidity Environments: 8.7 wt %
[2]; Humidity 40%, placement time 2 days
  Water Content When Placed in Different Humidity Environments: 12.6 wt %
[2]; Humidity 40%, placement time 3 days
  Water Content When Placed in Different Humidity Environments: 21.8 wt %
[2]; Humidity 40%, placement time 4 days
  Water Content When Placed in Different Humidity Environments: 22.4 wt %
[2]; Humidity 40%, placement time 10 days
  Water Content When Placed in Different Humidity Environments: 21.8 wt %
[2]; Humidity 60%, placement time 0 hour
  Water Content When Placed in Different Humidity Environments: 2.7 wt %
[2]; Humidity 60%, placement time 1 hour
  Water Content When Placed in Different Humidity Environments: 4.7 wt %
[2]; Humidity 60%, placement time 2 hours
  Water Content When Placed in Different Humidity Environments: 5.7 wt %
[2]; Humidity 60%, placement time 14 hours
  Water Content When Placed in Different Humidity Environments: 8.6 wt %
[2]; Humidity 60%, placement time 2 days
  Water Content When Placed in Different Humidity Environments: 16.3 wt %
[2]; Humidity 60%, placement time 3 days
  Water Content When Placed in Different Humidity Environments: 22.5 wt %
[2]; Humidity 60%, placement time 4 days
  Water Content When Placed in Different Humidity Environments: 23.64 wt %
[2]; Humidity 60%, placement time 10 days
  Water Content When Placed in Different Humidity Environments: 23.5 wt %
[2]; Humidity 90%, placement time 0 hour
  Water Content When Placed in Different Humidity Environments: 2.7 wt %
[2]; Humidity 90%, placement time 1 hour
  Water Content When Placed in Different Humidity Environments: 5.1 wt %
[2]; Humidity 90%, placement time 2 hours
  Water Content When Placed in Different Humidity Environments: 5.8 wt %
[2]; Humidity 90%, placement time 14 hours
  Water Content When Placed in Different Humidity Environments: 8.9 wt %
[2]; Humidity 90%, placement time 2 days
  Water Content When Placed in Different Humidity Environments: 15.9 wt %
[2]; Humidity 90%, placement time 3 days
  Water Content When Placed in Different Humidity Environments: 22.7 wt %
[2]; Humidity 90%, placement time 4 days
  Water Content When Placed in Different Humidity Environments: 22.8 wt %
[2]; Humidity 90%, placement time 10 days
  Water Content When Placed in Different Humidity Environments: 21.9 wt %
[3]; product of placement time 1 hour, 15th Day
  Acceleration Test Inspection, Water Content: 23.4 wt %
[3]; product of placement time 1 hour, 30th Day
  Acceleration Test Inspection, Water Content: 22.4 wt %
[3]; product of placement time 1 hour, 60th Day
  Acceleration Test Inspection, Water Content: 21.8 wt %
[3]; product of placement time 2 hours, 15th Day
  Acceleration Test Inspection, Water Content: 22.9 wt %
[3]; product of placement time 2 hours, 30th Day
  Acceleration Test Inspection, Water Content: 22.1 wt %
[3]; product of placement time 2 hours, 60th Day
  Acceleration Test Inspection, Water Content: 21.5 wt %
[3]; [9]
  Acceleration Test Inspection, Character: Powder
  Acceleration Test Inspection, Water Content: 22.7 wt %
[3]; [10]
  Acceleration Test Inspection, Character: Powder
  Acceleration Test Inspection, Water Content: 22.0 wt %
[3]; [11]
  Acceleration Test Inspection, Character: Powder
  Acceleration Test Inspection, Water Content: 21.4 wt %
[3]; [12]
  Acceleration Test Inspection, Character: Powder
  Acceleration Test Inspection, Water Content: 23.0 wt %
[3]; [13]
  Acceleration Test Inspection, Character: Powder
  Acceleration Test Inspection, Water Content: 22.5 wt %
[3]; [14]
  Acceleration Test Inspection, Character: Powder
  Acceleration Test Inspection, Water Content: 21.6 wt %
[3]; [15]
  Acceleration Test Inspection, Character: Powder
  Acceleration Test Inspection, Water Content: 22.1 wt %
[3]; [16]
  Acceleration Test Inspection, Character: Powder
  Acceleration Test Inspection, Water Content: 21.8 wt %
[3]; [17]
  Acceleration Test Inspection, Character: Powder
  Acceleration Test Inspection, Water Content: 21.5 wt %
[3]; [18]
  Acceleration Test Inspection, Character: Powder
  Acceleration Test Inspection, Water Content: 22.9 wt %
[3]; [19]
  Acceleration Test Inspection, Character: Powder
  Acceleration Test Inspection, Water Content: 21.8 wt %
[3]; [20]
  Acceleration Test Inspection, Character: Powder
  Acceleration Test Inspection, Water Content: 21.8 wt %
[3]; [21]
  Acceleration Test Inspection, Character: Powder
  Acceleration Test Inspection, Water Content: 22.0 wt %
[3]; [22]
  Acceleration Test Inspection, Character: Powder
  Acceleration Test Inspection, Water Content: 21.7 wt %
[3]; [23]
  Acceleration Test Inspection, Character: Powder
  Acceleration Test Inspection, Water Content: 21.9 wt %
[3]; water content greater than 6% (wt %), summary of Table 1
  character: basically kept unchanged
[4]
  anti-HIV activity: plays the role of fighting against the HIV
[5]
  metabolism in plasma: rapidly metabolized in plasma to 2′,3′-dideoxyguanosine (ddG)
[6]; water content higher than 30% (wt %)
  behaviour during the smashing process: easy to be bonded into blocks during the smashing process
[6]; water content lower than 6% (wt %)
  moisture absorption: easy to absorb the water; also recorded: very easy to absorb moisture and be blocked
[7]
  anti-HBV activity: anti-HBV activity

## COc1nc(N)nc2c1ncn2[C@H]1CC[C@@H](CO)O1 [stable 6-methoxy-2′,3′-dideoxyguanosine, 6-methoxy-2′,3′-dideoxyguanosine]
[6]; stable form, water content 6-30% (wt %)
  moisture absorption: difficult to absorb the moisture
[6]; stable form, water content 6-30% (wt %), room temperature
  stability: very stable at room temperature

## COc1nc(N)nc2c1ncn2[C@H]1CC[C@@H](CO)O1 [Example 3, 6-methoxy-2′,3′-dideoxyguanosine]
[1]
  water content of the required product: 23.2 % (wt %)

## Nc1nc2c(ncn2[C@H]2CC[C@@H](COP(=O)(O)OP(=O)(O)OP(=O)(O)O)O2)c(=O)[nH]1 [ddGTP]
[8]
  suppression of DHBV DNA replication: can selectively compete with the ddCTP for suppressing the DHBV DNA replication
